Data on 15 molecules can be found in PubChem BioAssay (NCI).

Experiment in all cases: NCI anticancer screen, dose series, 48 h
Assay [1] concerns SF-268 CNS.
Assay [2] relates to MDA-N.
The subject of assay [3] is T-47D breast.
Assay [4] concerns OVCAR-8 ovarian.
Assay [5] concerns MDA-MB-231 breast.
The subject of assay [6] is U251 CNS.
The test system of assay [7] is HOP-62 NSCLC.
The test system of assay [8] is MDA-MB-435.
Assay [9] deals with NCI/ADR-RES ovarian.
The subject of assay [10] is MALME-3M melanoma.

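Each compound was tested at five concentrations against cells in 96-well plates for 48 hours. TGI denotes the concentration required for complete inhibition of growth.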

As to `O=C(CCc1cc(O)cc(O)c1)NCCc1cc(OCc2ccccc2)cc(OCc2ccccc2)c1`, the TGI is 43.2 µM in assay [1]; 35 µM in assay [2]; 39.3 µM in assay [3]; 50.6 µM in assay [4]; 39.3 µM in [5]; more than 100 µM in [6]. Moreover, the TGI amounted to 36.8 µM in assay [7], 37.6 µM in [8] and 55.2 µM in assay [9].

On to `CC1CC(N2CCOCC2)=Nc2ccccc2N1C` (stereo unspecified), for which the TGI in assay [1], in assay [2], in assay [4], in [5], in [6] and in [7] was more than 100 µM throughout. For the same molecule, the TGI in assay [10], in [8] and in assay [9] was more than 100 µM each time.

In the case of `O=C(c1ccco1)N(C(=O)N1CCCCC1)c1ccccc1`, the TGI in assay [1], in assay [2], in assay [4], in assay [5], in [6] and in assay [10] was more than 100 µM each time. For the same molecule, the TGI in assay [8] and in assay [9] was more than 100 µM throughout.

For `COCOc1ccc(C(=O)Oc2cccc3c2OC(C)(C)O3)c(OCOC)c1`, the TGI in assay [1], in assay [2], in assay [3], in [4], in [5] and in assay [6] was more than 100 µM in each case. Besides, the TGI in assay [7], in assay [8] and in assay [9] was more than 100 µM each time.

As to `Cc1nnc2n(c1=O)CCCN2C`, the TGI in assay [1], in assay [2], in assay [3], in assay [4], in assay [5] and in assay [6] was more than 100 µM throughout. Besides, the TGI in [7], in [10] and in [8] was more than 100 µM in each case.

For `CN(/N=C1\C(=O)Nc2ccccc21)c1ccccc1`, the TGI in assay [1] was more than 100 µM; in assay [2], more than 100 µM; in assay [3], more than 100 µM; in [4], more than 100 µM; in assay [5], 62.5 µM; in assay [6], more than 100 µM. The TGI in [7], in assay [10] and in assay [8] was more than 100 µM throughout.

`COC(=O)/C=C(\C)CC/C=C(\C)CCC1OC1(C)C` (stereo unspecified): the TGI in assay [2] amounted to 21.9 µM; in assay [4] it was 25.7 µM; in assay [5], 23.4 µM; in assay [6] it was 22.5 µM; in assay [7], 26.7 µM; in assay [10] it was 29.1 µM. In assay [9], this molecule displayed a TGI of 28 µM.

`Cn1nc(-c2ccc(S(=O)(=O)/N=C(\NN)Nc3ccc(Cl)cc3)s2)cc1C(F)(F)F`: the TGI stood at 32.6 µM in assay [1]; 28 µM in assay [2]; 27.6 µM in assay [3]; 43 µM in assay [4]; 32.2 µM in [5]; 28.3 µM in assay [6]. Further, the values for the TGI in assay [7] and in [9] were 32.3 µM and 50.7 µM, respectively.

`COc1ccc2c(c1)c1c(n2CCN2CCCCC2)-c2cccc(OC)c2CC1`: the TGI in [1] was determined as 48.8 µM; in assay [2] it was 35 µM; in [3], 47.2 µM; in assay [4], 32.3 µM; in [5], 36.6 µM; in assay [6], 29.9 µM. Further, the TGI was 32.4 µM in [7], 31.5 µM in assay [8] and 41.5 µM in assay [9].

`O=C1C=CC2(O[C@H](c3ccccc3)[C@@H](c3ccccc3)O2)[C@H](Sc2ccccc2O)C1`: the TGI in assay [1] amounted to 0.964 µM; in assay [2], 1.13 µM; in assay [4], 0.217 µM; in [5], 2.22 µM; in [6], 1.78 µM; in [7], 3.98 µM. In addition, the TGI in assay [10] came to 0.907 µM; in assay [8], 0.982 µM; in [9] it was 10 µM.

Turning to `COc1cccc(C2c3cc4c(cc3OC(O)C2C)OCO4)c1OC` (stereo unspecified), the TGI in assay [1] was 41.7 µM; in assay [2], 58.3 µM; in assay [3] it was 40.7 µM; in [4], 18.7 µM; in [5], 42.4 µM; in assay [6], 40.2 µM. The TGI in assay [7] is 80.1 µM; in assay [10] it was 32.9 µM; in assay [8] it was 33.9 µM.

Take `NS(=O)(=O)c1nnc(NC(=O)N(c2ccccc2)c2ccccc2)s1`: the TGI in assay [1] is more than 100 µM; in assay [2], 88.3 µM; in assay [4], 51.1 µM; in assay [5], more than 100 µM; in assay [6], more than 100 µM; in assay [7] it was 77.3 µM. The TGI came out at 62.5 µM in [10], 68.8 µM in assay [8] and 44.4 µM in assay [9].

For `CN1CSC(=S)N(c2cccc(C(F)(F)F)c2)C1`, the TGI was 53 µM in assay [1]; 91.2 µM in assay [2]; more than 100 µM in [3]; 74.5 µM in assay [4]; more than 100 µM in assay [6]; 70 µM in assay [7]. Also, the results for the TGI in [10], in assay [8] and in [9] were 35.2 µM, 51.9 µM and 73.4 µM, respectively.

Turning to `COC(=O)[C@]1(C)CCC[C@@]2(C)C1CC[C@]13C=C(C(C)C)[C@H](CC21)CC3(Cl)C#N` (stereo partly specified), the TGI was more than 100 µM in [1]; 55.8 µM in assay [3]; more than 100 µM in assay [4]; more than 100 µM in assay [5]; 49.4 µM in assay [6]; more than 100 µM in [7]. Moreover, the TGI was 89.7 µM in assay [10], more than 100 µM in assay [8] and more than 100 µM in assay [9].

With `Cc1ccc2c(c1C)C(=O)C1(Cc3cc4c(cc3C1=O)CCC4)C2` (stereo unspecified), the TGI in assay [1], in assay [2], in assay [3], in assay [4], in [5] and in assay [6] was more than 100 µM throughout. Moreover, the TGI in [10], in assay [8] and in assay [9] was more than 100 µM throughout.
